Columns and labels:
[1] = test system: endogenous eIF4E and HA-tagged 4E-BPs in S2 cells; assay: Immunofluorescence localization in S2 cells; format: cell-based, Drosophila melanogaster; conditions: S2 cells, LMB 100 nM, 12 h
[2] = test system: CRM1; set-up: method as in PMID 15465908, PMID 10856257, PMID 9190288; conditions: cited from earlier work
[3] = test system: eIF4E; conditions: 4E-BP1,2 non-canonical motifs; cited from earlier work
Excerpt: The immunoprecipitation assays shown in Fig. 1e–g indicate that similar to CUP, Thor and 4E-T contain NC motifs that interact with the lateral binding surface of eIF4E. In human 4E-BP1,2, the NC IPGVTS/T motif (located C-terminally to the C motif), increases the binding affinity of the proteins for eIF4E by approximately three orders of magnitude. However, the IPGVTS/T motif is not conserved across the animal kingdom (Supplementary Fig. 2c). Nevertheless, several hydrophobic residues are present in the corresponding region in Dm Thor (residues Pro76–Pro84; Supplementary Fig. 2c). || Owing to their lack of conservation, it has remained unclear whether non-canonical motifs are present in all 4E-BPs[38]. […] At the functional level, non-canonical motifs have been proposed to play an auxiliary role and have been mainly implicated in the regulation of the affinity of eIF4E for the mRNA cap structure through allosteric effects. Specifically, the binding of the 4E-BP1,2 non-canonical ...

[4] = test system: eIF4E (WT) bound to GST-CUP, GST-Thor, GST-4E-T or GST-eIF4G; assay: Competition by MBP-eIF4G with 4E-BPs or eIF4G bound to WT eIF4E; format: biochemical, Drosophila melanogaster; conditions: excess MBP-eIF4G (residues 578–650), 30 min at 4 °C, Strep-Tactin pull down
Procedure: (§1) For the competition assays shown in Figs 5a,c and 6a,b, complexes containing SHN- or MBP-tagged eIF4E (WT or II-AA mutant) bound to GST-eIF4G (residues 578–650), GST-Thor (full length), GST-4E-T (residues 1–58) or GST-CUP (311–440) were obtained by coexpressing the corresponding proteins in E. coli BL21 (DE3) STAR cells (30 ml culture). The cells were resuspended in lysis buffer (5 ml) that was supplemented with EDTA-free protease inhibitor (Roche) and 1 mg ml^−1 lysozyme and lysed by sonication. The cleared lysates were incubated with 400 μl of Protino Glutathione Agarose 4B (Macherey-Nagel) for 1 h. The beads were washed three times with lysis buffer, and the proteins were eluted after 10 min of incubation with lysis buffer containing 25 mM L-glutathione. The protein complexes were stored at −20 °C or used in competition assays.
(§2) The purified recombinant complexes were mixed with excess amounts of the indicated purified competitor proteins (Fig. 5c) or with bacterial lysates expressing the competitor proteins (Figs 5a and 6) and incubated for 30 min at 4 °C. After incubation, 20 μl of immobilized γ-Aminophenyl-m^7GTP or Strep-Tactin Sepharose (IBA), were added to the samples and incubated for another 40 min at 4 °C. […] The proteins were analyzed by 10–15% SDS–PAGE followed by staining with Coomassie blue staining.

[5] = test system: eIF4E II-AA mutant bound to GST-4E-BP; assay: Competition by MBP-eIF4G with 4E-BPs bound to eIF4E II-AA mutant; format: biochemical, Drosophila melanogaster; conditions: 30 min at 4 °C
Procedure: as §1, §2

Molecule: CCC(=C/[C@H](C)C/C=C/C(C)=C/[C@@H](C)C(=O)[C@@H](C)[C@H](O)[C@@H](C)C/C(C)=C/C(=O)O)/C=C/[C@@H]1OC(=O)C=C[C@@H]1C [LMB, Leptomycin B, reference compound]
- nuclear accumulation of 4E-BP upon LMB (in words) [1]: induced the nuclear accumulation of CUP and 4E-T proteins
- inhibition of nuclear export by CRM1 (in words) [2]: inhibits nuclear export by CRM1

Molecule: human 4E-BP1,2: human eIF4E-binding proteins 1 and 2 with NC IPGVTS/T motif
- effect of NC motif binding on affinity of eIF4E for the cap structure (in words) [3]: increases the affinity for the cap structure

B1: MBP-eIF4G: MBP-eIF4G (residues 578–650) (protein)
chain: PETTLNDKQDSTDLKVKVSAKISSIINYNEGQWSPNNPSGKKQYDREQLLQLREVKASRIQPEVKNVSILPQP
modifications: left off: MBP, N-terminal, kept | GB1, C-terminal, kept
- displacement of proteins bound to WT eIF4E (in words) [4]: did not displace CUP, Thor, 4E-T or eIF4G bound to WT eIF4E
- displacement of CUP bound to eIF4E II-AA (in words) ([5]; excess MBP-eIF4G (residues 578–650) vs GST-CUP (311–440)): partially displaced CUP
- displacement of Thor bound to eIF4E II-AA (in words) ([5]; excess MBP-eIF4G (residues 578–650) vs GST-Thor (full length)): completely displaced full-length Thor

— publication PMC4164784, “4E-BPs require non-canonical 4E-binding motifs and a lateral surface of eIF4E to repress translation” (Nature Communications, 2014)
